Results as given in publication PMC8846325, “A Photoactivable Natural Product with Broad Antiviral Activity against Enveloped Viruses, Including Highly Pathogenic Coronaviruses” (Antimicrobial Agents and Chemotherapy, 2022).

Test system: HCoV-229E
Experiment: HCoV-229E-Luc infection inhibition luciferase assay
Format: cell-based

SMILES	HCoV-229E infection with entry inhibitor
CCOC(=O)[C@H]1O[C@@H]1C(=O)N[C@@H](CC(C)C)C(=O)NCCC(C)C [E64D]	specifically inhibited HCoV-229E infection
CN(C)C(=O)COC(=O)Cc1ccc(OC(=O)c2ccc(NC(=N)N)cc2)cc1 [Camostat]	inhibited infection
